According to paper PMC6341489 (2016):

System: 2-AP-labeled miR-21-hp RNA (RNA, miRNA, 2-aminopurine at 15 (replaces A15)) GGGUUGACUGUUGAAUCUCAUGGCAACCC
Test: 2-aminopurine fluorescence titration
Conditions: 137 mM NaCl, 3 mM KCl; apparent; PBS pH 7.4, 10% DMSO, RT, 2 μM RNA

## OC(CNc1ccccc1)Cn1c2ccc(Br)cc2c2cc(Br)ccc21 (stereo not shown)
  Kd: 3.2 ± 0.7 µM
